Entries after “also recorded” stand apart in the source; their conditions may differ.
What was measured:
[1] = system: Jurkat cells; test: Flow cytometry uptake of labeled GAA with IGF-II tag; assay type: cell-based, human; details: for inhibition of rhGAA-IGF-II uptake (in words): Jurkat cells (Jurkat and HepG2 not distinguished); for inhibition of uptake: rhGAA-IGF-II uptake into Jurkat cells
Protocol: The assay was also validated for a CI-MPR ligand that is not mannose-6 phosphate. The ability of CI-MPR expressing Jurkat or HepG2 cells were analyzed by flow cytometry for their ability to take up labeled GAA comprising an IGF-II tag, which facilitates binding to the CI-MPR. […] This uptake was inhibited by unlabeled GAA as well as anti-IGFII antibody.

[2] = system: Jurkat cells; test: Cell-based flow cytometry assay of Alexa488-rhGALNS uptake (screening assay, % SI); set-up: species or system human
Protocol: Cell uptake of rhGALNS is measured using flow cytometry to determine the amount of fluorophore-conjugated rhGALNS taken up by Jurkat cells. Jurkat cells are a non-adherent human T cell line that express CI-MPR, which binds and targets rhGALNS to the lysosome. rhGALNS neutralizing antibodies (NAb) are detected in samples by a decrease in fluorophore-conjugated rhGALNS uptake (calculated as % inhibition) that exceeds the screening cut point (SCP).
For a 1:1 dilution, 60 μL per well of controls were added in duplicate or in quadruplicate for 2 sets into the appropriate wells. Similarly, for a 1:1 dilution of sample, 60 μL per well of patient screening samples were added into the appropriate wells. For a 1:1 dilution for the confirmation assay, 60 μL per well of patient confirmation samples were added in duplicate into the corresponding wells. The plate was covered, wrapped in foil and allowed to incubate overnight for 14 to 20 hours at 2-8° C.
Assay: Prior to the sample incubation step, the cell plates were removed from the CO2 incubator and observed to ensure the cells were healthy and viable. […] After the incubation was completed, the cells were washed in PBS by centrifuging the plate for 6 min at 310×g in a tabletop centrifuge at 14 to 18° C., repeated two to five times as appropriate. After the last wash, the plate was removed from the centrifuge, the cell pellet resuspended in 100 μL viability stain (red fluorescent reactive dye 1:1000 dilution) and tested for viability. Once viability testing was complete, the cells were centrifuged 6 min at 310×g in a tabletop centrifuge at 14 to 18° C.
Percent Signal Inhibition (% SI) is calculated as [% SI=1—mean median fluorescence intensity (MFI) of sample/mean MFI of control×100]. Confirmatory assay data were analyzed as recovery ratio, defined as mean confirmatory assay MFI of sample/mean screening assay MFI of sample. The titer was calculated as the interpolated dilution factor at which the sample crossed the titer cut point determined by linear regression analysis (Microsoft Excel).

**Q.** Which “inhibition of rhGAA-IGF-II uptake (in words)” value [1] does the source give for O=C[C@@H](O)[C@@H](O)[C@H](O)[C@H](O)COP(=O)(O)O [M6P, mannose-6-phosphate, reference compound] here?
**A.** Its value is “partial inhibition”.

**Q.** And the “inhibition of rhGALNS uptake into Jurkat cells (in words)” value [2]?
**A.** The value was “dose dependent effect; also recorded: dose dependently abrogated; also recorded: completely blocked”.

**Q.** What about the “inhibition of rhGALNS uptake” value ([2]; 0.5M M6P) of the same molecule?
**A.** Its value is “approximately 32%”.

**Q.** What about the “inhibition of rhGALNS uptake” value ([2]; 5M M6P) of the same molecule?
**A.** Its value is “approximately 96%”.

**Q.** And the IC50 ([2]; Homo sapiens, Jurkat cells)?
**A.** Its IC50 is 453 µM.

**Q.** With C=C1[C@@H](C)[C@H]2[C@H](Cc3ccccc3)NC(=O)[C@]23OC(=O)/C=C/[C@H](O)CCC[C@@H](C)C/C=C/[C@H]3[C@@H]1O [cytochalasin B, reference compound] as the molecule, how does the “MFI signal emitted from Alexa488-rhGALNS-treated cells” value ([2]; 374 μM cytochalasin B, pretreated 1 hour) read?
**A.** Its value is 777±4.2.

**Q.** Cc1cc(-c2ccc(/N=N/c3c(S(=O)(=O)O)cc4cc(S(=O)(=O)O)cc(N)c4c3O)c(C)c2)ccc1/N=N/c1c(S(=O)(=O)O)cc2cc(S(=O)(=O)O)cc(N)c2c1O [trypan blue, reference compound] was tested. Which “fluorescence of cells treated with Alexa488-labeled anti-CD3” value ([2]; increasing concentrations of trypan blue) did it give?
**A.** Its value is “reduced”.

**Q.** What about the “impact on Alexa488-rhGALNS MFI values” ([2]; trypan blue up to 0.4%) of the same molecule?
**A.** Its value is “no impact”.

**Q.** Which results are given for “IGF-II: CI-MPR ligand tested as a possible neutralizing factor”?
**A.** inhibition of uptake ([1]; 0.6M excess IGF-II): approximately 58%; inhibition of uptake ([1]; 50M excess IGF-II): approximately 95%; inhibition of rhGAA-IGF-II uptake (in words) [1]: dose dependent effect; inhibition of rhGALNS uptake into Jurkat cells (in words) [2]: partial inhibition

**Q.** Which “inhibition of rhGAA-IGF-II uptake (in words)” value [1] does the source give for “unlabeled GAA: unlabeled acid alpha glucosidase used as a competitor of GAA-IGFII uptake” here?
**A.** The value was “inhibited”.
